Data: ChEMBL document CHEMBL5576083, “Structure-Based Design and Synthesis of Covalent Inhibitors for Deubiquitinase and Acetyltransferase ChlaDUB1 of Chlamydia trachomatis” (J Med Chem, 2024)
Activity calls are given as the source filed them. The rule behind the calls is not given here.

Tests used:
[1] = biological target: T1, Ubiquitin carboxyl-terminal hydrolase isozyme L1 (Homo sapiens, UniProt P09936); assay: Inhibition of 6His-tagged human UCHL1 using Ub-Rh110Gly as fluorogenic substrate preincubated for 1 hr followed by substrate addition by plate reader analysis
T1 sequence (P09936 whole entry): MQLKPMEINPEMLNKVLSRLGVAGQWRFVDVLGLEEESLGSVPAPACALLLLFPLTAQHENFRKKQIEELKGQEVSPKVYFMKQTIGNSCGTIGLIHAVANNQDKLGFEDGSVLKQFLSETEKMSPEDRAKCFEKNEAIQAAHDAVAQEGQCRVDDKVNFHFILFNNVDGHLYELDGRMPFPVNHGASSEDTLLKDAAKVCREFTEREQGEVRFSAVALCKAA

Chlamydia trachomatis [2] = assay: Antimicrobial activity against Chlamydia trachomatis serovar L2 infected in human HeLa cells assessed as reduction in microbial progeny at 1.56 ug/ml measured after 24 hrs of post-infection by immunofluorescence analysis; format: functional; settings: dose 1.56 µg/ml
[3] = biological target: T2, OTU domain-containing protein 3 (Homo sapiens) (UniProt Q5T2D3); assay: Inhibition of GST-tagged human OTUD3 using Ub-Rh110Gly as fluorogenic substrate at 40 uM preincubated for 1 hr followed by substrate addition by plate reader analysis
T2 sequence (whole entry): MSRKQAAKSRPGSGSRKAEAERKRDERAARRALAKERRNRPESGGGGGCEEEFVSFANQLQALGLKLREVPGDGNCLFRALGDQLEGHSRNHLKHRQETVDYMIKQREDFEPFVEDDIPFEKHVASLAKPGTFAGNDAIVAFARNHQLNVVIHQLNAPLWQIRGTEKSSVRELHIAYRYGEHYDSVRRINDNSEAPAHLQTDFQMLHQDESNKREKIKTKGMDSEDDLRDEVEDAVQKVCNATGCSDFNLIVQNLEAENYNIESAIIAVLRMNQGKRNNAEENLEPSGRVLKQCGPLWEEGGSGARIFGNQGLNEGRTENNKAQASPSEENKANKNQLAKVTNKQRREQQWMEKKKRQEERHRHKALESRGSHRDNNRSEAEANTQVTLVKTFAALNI

[4] = Inhibition of Chlamydia trachomatis DUB2 expressed in Escherichia coli Rosetta 2 (DE3) cells using Ub-Rh110Gly as fluorogenic substrate preincubated for 1 hr followed by substrate addition by plate reader analysis
[5] = Binding affinity to C-terminal 6His-tagged Chlamydia trachomatis DUB1 (130 to 401 residues) expressed in Escherichia coli Rosetta 2 (DE3) cells using Ub-Rh110Gly as fluorogenic substrate assessed as inhibition constant preincubated for 60 mins followed by substrate addition measured after 360 mins by plate reader analysis
Chlamydia trachomatis [6] = assay: Antimicrobial activity against Chlamydia trachomatis serovar L2 infected in human HeLa cells assessed as reduction in microbial progeny at 6.25 ug/ml measured after 48 hrs of post-infection by immunofluorescence analysis; format: functional; set-up: scale not given: the % may be the effect or the level left; settings: dose 6.25 µg/ml
[7] = biological target: Ubiquitin carboxyl-terminal hydrolase 14 (Homo sapiens) (UniProt P54578); assay: Inhibition of human USP14 using Ub-Rh110Gly as fluorogenic substrate at 40 uM preincubated for 1 hr followed by substrate addition by plate reader analysis
Chain of Ubiquitin carboxyl-terminal hydrolase 14 (Homo sapiens) (P54578 whole entry): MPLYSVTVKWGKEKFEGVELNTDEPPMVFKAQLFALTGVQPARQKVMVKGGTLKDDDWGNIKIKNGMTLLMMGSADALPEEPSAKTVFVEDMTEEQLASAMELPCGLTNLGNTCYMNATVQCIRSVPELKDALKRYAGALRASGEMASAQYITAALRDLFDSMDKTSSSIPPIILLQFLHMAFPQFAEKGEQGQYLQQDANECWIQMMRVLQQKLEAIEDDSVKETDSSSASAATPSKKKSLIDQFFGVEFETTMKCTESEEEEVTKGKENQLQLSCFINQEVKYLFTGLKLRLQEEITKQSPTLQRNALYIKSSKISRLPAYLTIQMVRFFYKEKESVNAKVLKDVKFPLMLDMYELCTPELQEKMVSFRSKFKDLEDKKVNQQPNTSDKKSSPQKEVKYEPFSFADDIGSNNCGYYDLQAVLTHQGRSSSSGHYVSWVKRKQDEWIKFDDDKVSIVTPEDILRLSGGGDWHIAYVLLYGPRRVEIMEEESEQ

[8] = biological target: T3, Ubiquitin thioesterase OTU1 (Homo sapiens) (UniProt Q5VVQ6); assay: Inhibition of GST-tagged human OTUD2 using Ub-AMC as substrate at 40 uM preincubated for 1 hr followed by substrate addition by plate reader analysis
T3 sequence (whole entry): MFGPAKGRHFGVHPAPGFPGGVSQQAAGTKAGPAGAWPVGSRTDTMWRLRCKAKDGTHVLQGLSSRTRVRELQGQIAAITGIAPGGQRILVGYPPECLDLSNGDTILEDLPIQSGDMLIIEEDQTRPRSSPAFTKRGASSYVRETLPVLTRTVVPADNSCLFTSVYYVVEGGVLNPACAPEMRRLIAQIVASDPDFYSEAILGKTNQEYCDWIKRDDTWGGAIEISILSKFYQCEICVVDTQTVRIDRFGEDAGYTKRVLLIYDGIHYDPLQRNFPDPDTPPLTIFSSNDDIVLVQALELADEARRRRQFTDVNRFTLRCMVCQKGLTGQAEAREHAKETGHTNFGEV

Chlamydia trachomatis [9] = assay: Antimicrobial activity against Chlamydia trachomatis serovar L2 infected in human HeLa cells assessed as inclusion forming unit at 12.5 ug/ml measured at 24 to 48 hrs of post-infection by immunofluorescence based microscopic analysis; format: functional; settings: dose 12.5 µg/ml; time 24-48 hrs
[10] = biological target: T4, Ubiquitin carboxyl-terminal hydrolase 25 (Homo sapiens) (UniProt Q9UHP3); assay: Inhibition of human USP25 (765 to 1055 residues) expressed in Escherichia coli Rosetta 2 (DE3) cells using Ub-Rh110Gly as fluorogenic substrate at 40 uM preincubated for 1 hr followed by substrate addition by plate reader analysis
T4 sequence (whole entry): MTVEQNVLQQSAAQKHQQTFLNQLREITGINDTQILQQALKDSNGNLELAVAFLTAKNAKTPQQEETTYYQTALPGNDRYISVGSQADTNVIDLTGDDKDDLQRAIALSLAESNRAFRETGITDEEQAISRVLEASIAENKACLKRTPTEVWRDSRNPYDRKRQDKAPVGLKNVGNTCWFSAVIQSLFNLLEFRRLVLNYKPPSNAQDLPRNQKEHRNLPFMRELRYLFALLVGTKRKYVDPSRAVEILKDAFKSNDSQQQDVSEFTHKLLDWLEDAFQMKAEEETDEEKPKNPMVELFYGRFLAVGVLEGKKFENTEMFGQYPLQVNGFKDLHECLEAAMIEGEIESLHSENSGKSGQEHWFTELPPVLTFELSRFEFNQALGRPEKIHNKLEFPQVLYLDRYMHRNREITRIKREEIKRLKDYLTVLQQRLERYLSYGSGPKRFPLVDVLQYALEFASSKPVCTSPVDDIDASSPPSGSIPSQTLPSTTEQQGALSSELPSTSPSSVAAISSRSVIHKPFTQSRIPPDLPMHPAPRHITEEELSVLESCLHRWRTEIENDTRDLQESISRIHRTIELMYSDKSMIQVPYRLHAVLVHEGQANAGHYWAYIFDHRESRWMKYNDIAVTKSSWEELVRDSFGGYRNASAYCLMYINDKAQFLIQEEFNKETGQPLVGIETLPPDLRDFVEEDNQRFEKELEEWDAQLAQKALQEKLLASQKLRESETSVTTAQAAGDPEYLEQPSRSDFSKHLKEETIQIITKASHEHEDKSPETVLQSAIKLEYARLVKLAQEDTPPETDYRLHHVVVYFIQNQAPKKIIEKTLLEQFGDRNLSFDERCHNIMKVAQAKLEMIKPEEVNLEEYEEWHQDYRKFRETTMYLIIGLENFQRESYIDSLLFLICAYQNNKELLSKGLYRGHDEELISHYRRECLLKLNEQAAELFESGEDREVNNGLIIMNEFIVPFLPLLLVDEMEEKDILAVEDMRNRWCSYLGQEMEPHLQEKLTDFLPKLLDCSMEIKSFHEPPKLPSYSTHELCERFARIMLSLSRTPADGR

HeLa = assay: Cytotoxicity against human HeLa cells at 128 ug/ml incubated for 20 hrs by […] assay; format: functional, cell-based; settings: dose 128.0 µg/ml

N#Cc1ncc(C(=O)NCc2ccc(C(=O)NC34CC5CC(CC(C5)C3)C4)cc2)cn1
IC50 [1]: 4.2 µM
Activity (Chlamydia trachomatis [2]): inactive
inhibition [3]: inactive
IC50 [4]: 15.7 µM
Ki [5]: 120 µM
Activity (Chlamydia trachomatis [6]): 41%
inhibition [7]: inactive
inhibition [8]: inactive
Activity (Chlamydia trachomatis [9]): 3.7 10^6IFU/ml
inhibition [10]: inactive
Activity (HeLa): inactive
